Test results from ChEMBL document CHEMBL3046740, “Lonazolac analogues: molecular modeling, synthesis, and in vivo anti-inflammatory activity” (2009).

Key:
Assay type in all cases: functional
[1] = test system: Rattus norvegicus; assay: Anti-inflammatory activity in Rattus norvegicus albino (rat) assessed as inhibition of carrageenan-induced paw edema at 50 mg/kg, po administered 30 min before carrageenan challenge measured after 4 hr
[2] = test system: Rattus norvegicus; assay: Anti-inflammatory activity in Rattus norvegicus albino (rat) assessed as inhibition of carrageenan-induced paw edema at 50 mg/kg, po administered 30 min before carrageenan challenge measured after 2 hr
[3] = test system: Rattus norvegicus; assay: Anti-inflammatory activity in Rattus norvegicus albino (rat) assessed as inhibition of carrageenan-induced paw edema at 50 mg/kg, po administered 30 min before carrageenan challenge measured after 24 hr
[4] = test system: Mus musculus; assay: Analgesic activity in Mus musculus (mouse) assessed as paw withdrawal latency time at 50 mg/kg, ip after 30 min; conditions: route intraperitoneal
[5] = test system: Rattus norvegicus; assay: Anti-inflammatory activity in Rattus norvegicus albino (rat) assessed as inhibition of carrageenan-induced paw edema at 50 mg/kg, po administered 30 min before carrageenan challenge measured after 3 hr
[6] = test system: Rattus norvegicus; assay: Anti-inflammatory activity in Rattus norvegicus albino (rat) assessed as inhibition of carrageenan-induced paw edema at 50 mg/kg, po administered 30 min before carrageenan challenge measured after 1 hr
[7] = test system: Rattus norvegicus; assay: Anti-inflammatory activity in Rattus norvegicus albino (rat) assessed as inhibition of carrageenan-induced paw edema at 10 mg/kg, po administered 30 min before carrageenan challenge measured after 2 hr
[8] = test system: Rattus norvegicus; assay: Anti-inflammatory activity in Rattus norvegicus albino (rat) assessed as inhibition of carrageenan-induced paw edema at 10 mg/kg, po administered 30 min before carrageenan challenge measured after 24 hr
[9] = test system: Rattus norvegicus; assay: Anti-inflammatory activity in Rattus norvegicus albino (rat) assessed as inhibition of carrageenan-induced paw edema at 10 mg/kg, po administered 30 min before carrageenan challenge measured after 3 hr
[10] = test system: Rattus norvegicus; assay: Anti-inflammatory activity in Rattus norvegicus albino (rat) assessed as inhibition of carrageenan-induced paw edema at 10 mg/kg, po administered 30 min before carrageenan challenge measured after 4 hr
[11] = test system: Rattus norvegicus; assay: Anti-inflammatory activity in Rattus norvegicus albino (rat) assessed as inhibition of carrageenan-induced paw edema at 10 mg/kg, po administered 30 min before carrageenan challenge measured after 1 hr
[12] = test system: Mus musculus; assay: Analgesic activity in Mus musculus (mouse) assessed as paw withdrawal latency time at 10 mg/kg, ip after 30 min; conditions: route intraperitoneal

SMILES | inhibition in vivo at 50 mg/kg [1] | inhibition in vivo at 50 mg/kg [2] | inhibition in vivo at 50 mg/kg [3] | Time [4] | inhibition in vivo at 50 mg/kg [5] | inhibition in vivo at 50 mg/kg [6] | inhibition in vivo at 10 mg/kg [7] | inhibition in vivo at 10 mg/kg [8] | inhibition in vivo at 10 mg/kg [9] | inhibition in vivo at 10 mg/kg [10] | inhibition in vivo at 10 mg/kg [11] | Time [12]
O=C(O)CCC(=O)/C=C/c1cn(-c2ccccc2)nc1-c1ccc(Cl)cc1 | 8.64% | 10.9% | 2.27% | 4.09 s | 6.32% | 3.43% | – | – | – | – | – | –
CC(=O)Nc1ccc(OC(=O)c2cn(-c3ccccc3)nc2-c2ccc(C)cc2)cc1 | 3.7% | 4.17% | 9.09% | 8.32 s | 6.32% | 2.94% | – | – | – | – | – | –
COc1ccc2c(c1)c(CC(=O)O)c(C)n2C(=O)c1ccc(Cl)cc1 [INDOMETHACIN] | – | – | – | – | – | – | 19.3% | 12.9% | 21.8% | 24.7% | 30.9% | 10.5 s
O=C(O)CCC(=O)/C=C/c1cn(-c2ccccc2)nc1-c1ccccc1 | 23.5% | 13.5% | 8.33% | 18.51 s | 15.5% | 27.9% | – | – | – | – | – | –
NC(=O)c1ccccc1NC(=O)c1cn(-c2ccccc2)nc1-c1ccc(Cl)cc1 | 9.26% | 9.38% | 15.2% | 4.89 s | 3.45% | 1.96% | – | – | – | – | – | –
CC(=O)Nc1ccc(OC(=O)c2cn(-c3ccccc3)nc2-c2ccc(Cl)cc2)cc1 | 16.1% | 15.6% | 3.79% | 18.83 s | 16.7% | 17.8% | – | – | – | – | – | –
Cc1ccc(-c2nn(-c3ccccc3)cc2/C=C/C(=O)CCC(=O)O)cc1 | 13% | 6.25% | 3.79% | 6.47 s | 11.5% | 4.41% | – | – | – | – | – | –
NC(=O)c1ccccc1OC(=O)c1cn(-c2ccccc2)nc1-c1ccc(Br)cc1 | 6.14% | 10.4% | 3.09% | 7.4 s | 8.6% | 26% | – | – | – | – | – | –
NC(=O)c1ccccc1NC(=O)c1cn(-c2ccccc2)nc1-c1ccccc1 | 9.88% | 13.5% | -3.79% | 6.29 s | 14.4% | 17.6% | – | – | – | – | – | –
